Assay results taken from ChEMBL document CHEMBL1144951, “Synthesis of N-alkylated derivatives of imidazole as antibacterial agents” (2003).
In brackets after ≈: the same amount, converted by molar mass.

Legend:
Format in all cases: functional
Staphylococcus aureus [1] = experiment: Minimum bacterial concentration (MBC) against Staphylococcus aureus
Pseudomonas aeruginosa [2] = experiment: Minimum bacterial concentration (MBC) against Pseudomonas aeruginosa
Escherichia coli [3] = experiment: Minimum inhibitory concentration (MIC) against Escherichia coli
Pseudomonas aeruginosa [4] = experiment: Minimum inhibitory concentration (MIC) against Pseudomonas aeruginosa
Staphylococcus aureus [5] = experiment: Minimum inhibitory concentration (MIC) against Staphylococcus aureus
Escherichia coli [6] = experiment: Minimum bacterial concentration (MBC) against Escherichia coli

Molecule | MBC (Staphylococcus aureus [1]) | MBC (Pseudomonas aeruginosa [2]) | MIC (Escherichia coli [3]) | MIC (Pseudomonas aeruginosa [4]) | MIC (Staphylococcus aureus [5]) | MBC (Escherichia coli [6])
CCCCCn1ccnc1 | 138 µg/mL (≈ 998 µM) | 276 µg/mL (≈ 2000 µM) | 97 µg/mL (≈ 702 µM) | 138 µg/mL (≈ 998 µM) | 69 µg/mL (≈ 499 µM) | 193 µg/mL (≈ 1400 µM)
CCn1ccnc1 | 960 µg/mL (≈ 9990 µM) | 1920 µg/mL (≈ 20000 µM) | 480 µg/mL (≈ 4990 µM) | 960 µg/mL (≈ 9990 µM) | 480 µg/mL (≈ 4990 µM) | 960 µg/mL (≈ 9990 µM)
CCCCCCCCCCCCCCn1ccnc1 | 21100 µg/mL (≈ 79900 µM) | 25100 µg/mL (≈ 94800 µM) | 21100 µg/mL (≈ 79900 µM) | 23800 µg/mL (≈ 89800 µM) | 19800 µg/mL (≈ 74900 µM) | 22400 µg/mL (≈ 84900 µM)
CCCCCCn1ccnc1C | 50 µg/mL (≈ 301 µM) | – | 25 µg/mL (≈ 150 µM) | – | 25 µg/mL (≈ 150 µM) | 50 µg/mL (≈ 301 µM)
CCCCCCCCCn1ccnc1 | 19 µg/mL (≈ 97.8 µM) | 78 µg/mL (≈ 401 µM) | 19 µg/mL (≈ 97.8 µM) | 39 µg/mL (≈ 201 µM) | 10 µg/mL (≈ 51.5 µM) | 39 µg/mL (≈ 201 µM)
CCCCCCCCCCCCn1ccnc1C | 18800 µg/mL (≈ 74900 µM) | – | 17500 µg/mL (≈ 69900 µM) | – | 17500 µg/mL (≈ 69900 µM) | 18800 µg/mL (≈ 74900 µM)
CCCCCCCCCCCCCn1ccnc1 | 18800 µg/mL (≈ 74900 µM) | 21200 µg/mL (≈ 84900 µM) | 18800 µg/mL (≈ 74900 µM) | 20000 µg/mL (≈ 79900 µM) | 17500 µg/mL (≈ 69900 µM) | 20000 µg/mL (≈ 79900 µM)
CCCCCCCCCCn1ccnc1 | 416 µg/mL (≈ 2000 µM) | 832 µg/mL (≈ 3990 µM) | 208 µg/mL (≈ 998 µM) | 416 µg/mL (≈ 2000 µM) | 208 µg/mL (≈ 998 µM) | 416 µg/mL (≈ 2000 µM)
CCCCn1cc([N+](=O)[O-])nc1C | 33 µg/mL (≈ 180 µM) | – | 18 µg/mL (≈ 98.2 µM) | – | 17 µg/mL (≈ 92.8 µM) | 37 µg/mL (≈ 202 µM)
CCCCCCCn1ccnc1 | 66 µg/mL (≈ 397 µM) | 166 µg/mL (≈ 998 µM) | 50 µg/mL (≈ 301 µM) | 83 µg/mL (≈ 499 µM) | 33 µg/mL (≈ 198 µM) | 100 µg/mL (≈ 601 µM)
CCCCCCCCCCCn1ccnc1 | 2220 µg/mL (≈ 9980 µM) | 4440 µg/mL (≈ 20000 µM) | 1110 µg/mL (≈ 4990 µM) | 2220 µg/mL (≈ 9980 µM) | 1110 µg/mL (≈ 4990 µM) | 2220 µg/mL (≈ 9980 µM)
CCCCn1ccnc1 | 174 µg/mL (≈ 1400 µM) | 496 µg/mL (≈ 3990 µM) | 99 µg/mL (≈ 797 µM) | 248 µg/mL (≈ 2000 µM) | 87 µg/mL (≈ 701 µM) | 198 µg/mL (≈ 1590 µM)
GENTAMICIN | 4 µg/mL | 12 µg/mL | 64 µg/mL | 8 µg/mL | 2 µg/mL | 128 µg/mL
CCCCCCCCn1cc([N+](=O)[O-])nc1C | 48 µg/mL (≈ 201 µM) | – | 31 µg/mL (≈ 130 µM) | – | 24 µg/mL (≈ 100 µM) | 60 µg/mL (≈ 251 µM)
CCCCCCCCCCCCn1ccnc1 | 15300 µg/mL (≈ 64900 µM) | 17700 µg/mL (≈ 74900 µM) | 14200 µg/mL (≈ 59900 µM) | 16500 µg/mL (≈ 69900 µM) | 14200 µg/mL (≈ 59900 µM) | 15300 µg/mL (≈ 64900 µM)
CCCn1ccnc1 | 198 µg/mL (≈ 1800 µM) | 1100 µg/mL (≈ 9990 µM) | 110 µg/mL (≈ 999 µM) | 550 µg/mL (≈ 4990 µM) | 44 µg/mL (≈ 399 µM) | 220 µg/mL (≈ 2000 µM)
CCCCCCn1ccnc1 | 91 µg/mL (≈ 598 µM) | 243 µg/mL (≈ 1600 µM) | 91 µg/mL (≈ 598 µM) | 122 µg/mL (≈ 801 µM) | 46 µg/mL (≈ 302 µM) | 182 µg/mL (≈ 1200 µM)
CCCCCCCCn1ccnc1 | 45 µg/mL (≈ 250 µM) | 108 µg/mL (≈ 599 µM) | 45 µg/mL (≈ 250 µM) | 54 µg/mL (≈ 300 µM) | 27 µg/mL (≈ 150 µM) | 90 µg/mL (≈ 499 µM)
